Results: US9556165B2 (priority 2012, dated 2017)
≈ marks a conversion by molar mass, not a printed value. Like-named read-outs stand apart in the source and are kept apart here.

What was measured:
Assay type in all cases: cell-based
E. coli ATCC25922 = assay: MIC determination, broth microdilution (CLSI); settings: for MIC: Escherichia coli, ATCC25922, strain 1
K. pneumoniae 60 = assay: MIC determination, broth microdilution (CLSI); settings: for MIC: Klebsiella pneumoniae, 60, strain 2
E. cloacae 34654 = assay: MIC determination, broth microdilution (CLSI); settings: for MIC: Enterobacter cloacae, 34654, strain 3
C. freundii K21/3034 = assay: MIC determination, broth microdilution (CLSI); settings: for MIC: Citrobacter freundii, K21/3034, strain 4
M. morganii 126/3048 = assay: MIC determination, broth microdilution (CLSI); settings: for MIC: Morganella morganii, 126/3048, strain 5
P. aeruginosa PAO1 = assay: MIC determination, broth microdilution (CLSI); settings: for MIC: Pseudomonas aeruginosa, PAO1, strain 6
[1] = test system: P. aeruginosa 2297 (AmpC wt); assay: MIC determination, broth microdilution (CLSI); settings: for MIC: Pseudomonas aeruginosa, strain 7
[2] = test system: P. aeruginosa 2297-con (AmpC derepressed); assay: MIC determination, broth microdilution (CLSI); settings: for MIC: Pseudomonas aeruginosa, read-out: strain 8 MIC, strain 8
A. baumannii ATCC15308 = assay: MIC determination, broth microdilution (CLSI); settings: for MIC: Acinetobacter baumannii, ATCC15308, strain 9
S. maltophilia ICB7569 = assay: MIC determination, broth microdilution (CLSI); settings: for MIC: Stenotrophomonas maltophilia, ICB7569, strain 10
S. aureus 133 = assay: MIC determination, broth microdilution (CLSI)
H. influenzae ATCC 49247 = assay: MIC determination, broth microdilution (CLSI); settings: broth microdilution; for MIC: Haemophilus influenzae, ATCC49247, strain 12, read-out: MIC strain 12 (H. influenzae ATCC 49247)
S. pneumoniae 113 = assay: MIC determination, broth microdilution (CLSI); settings: broth microdilution; for MIC: Streptococcus pneumoniae, 113, strain 13, read-out: MIC strain 13 (S. pneumoniae 113)
B. fragilis 6688 = assay: MIC determination, broth microdilution (CLSI); settings: Bacteroides fragilis, 6688, strain 15; broth microdilution; read-out: MIC strain 15 (B. fragilis 6688)
C. perfringens DSM756 = assay: microbe, parasite or virus in culture; settings: Clostridium perfringens, DSM756, read-out: MIC strain 16 (C. perfringens DSM756), strain 16; broth microdilution
E. coli J62 = assay: MIC determination, broth microdilution (CLSI); settings: broth microdilution; for MIC: Escherichia coli, J62, strain 17, read-out: MIC strain 17 (E. coli J62)
E. coli J62-TEM-3 = assay: MIC determination, broth microdilution (CLSI); settings: Escherichia coli, J62TEM3, read-out: MIC strain 18 (E. coli J62-TEM-3), strain 18; broth microdilution
Bacteria = assay: MIC determination in combination with β-lactamase inhibitors (constant 4 μg/mL)
[3] = Staphylococcus aureus, 133, strain 11, read-out: strain 11 MIC
[4] = Staphylococcus aureus, 133, strain 14, broth microdilution, read-out: MIC strain 14 (S. aureus 133)

SMILES | MIC (S. aureus 133; [3]) | MIC (B. fragilis 6688) | MIC (C. perfringens DSM756) | MIC (E. coli J62-TEM-3) | MIC strain 19 (E. coli J62-TEM-3 + 4 μg/mL clavulanic acid) (Bacteria) | MIC strain 20 (E. coli J62-TEM-3 + 4 μg/mL sulbactam) (Bacteria) | MIC strain 21 (E. coli J62-TEM-3 + 4 μg/mL tazobactam) (Bacteria) | MIC (E. coli ATCC25922) | MIC (K. pneumoniae 60) | MIC (E. cloacae 34654) | MIC (C. freundii K21/3034) | MIC (M. morganii 126/3048) | MIC (P. aeruginosa PAO1) | MIC [1] | MIC [2] | MIC (A. baumannii ATCC15308) | MIC (S. maltophilia ICB7569) | MIC (H. influenzae ATCC 49247) | MIC (S. pneumoniae 113) | MIC (E. coli J62) | further results
CC1(C)[C@H](NC(=O)/C(=N\OC(COc2ccc(C(=N)NCCN)cc2)C(=O)O)c2csc(N)n2)C(=O)N1OS(=O)(=O)O (mixture of isomers) [Example 44A, (2R and 2S)-3-{4-[N-(2-Aminoethyl)carbamimidoyl]phenoxy}-2-({[(1Z)-1-(2-amino-1,3-thiazol-4-yl)-2-{[(3S)-2,2-dimethyl-4-oxo-1-(sulfooxy)azetidin-3-yl]amino}-2-oxoethylidene]amino}oxy)propanoic acid] | ≤ 0.063 µg/mL | 8 µg/mL | 1 µg/mL | 2 µg/mL | ≦0.063 mg/L | ≦0.063 mg/L | ≦0.063 mg/L |  |  |  |  |  |  |  |  |  |  |  |  |  | strain 1 MIC (E. coli ATCC25922; strain 1): ≦0.063 mg/L; strain 2 MIC (K. pneumoniae 60; strain 2): ≦0.063 mg/L; strain 3 MIC (E. cloacae 34654; strain 3): 0.125 µg/mL; strain 4 MIC (C. freundii K21/3034; strain 4): ≦0.063 mg/L; strain 5 MIC (M. morganii 126/3048; strain 5): 0.125 µg/mL; strain 6 MIC (P. aeruginosa PAO1; strain 6): 1 µg/mL; strain 7 MIC [1]: 2 µg/mL; strain 8 MIC ([2]; strain 8): 1 µg/mL; strain 9 MIC (A. baumannii ATCC15308; strain 9): 2 µg/mL; strain 10 MIC (S. maltophilia ICB7569; strain 10): 2 µg/mL; MIC (S. aureus 133; [4]): 32 µg/mL; MIC strain 12 (H. influenzae ATCC 49247) (H. influenzae ATCC 49247; strain 12): ≦0.063 mg/L; MIC strain 13 (S. pneumoniae 113) (S. pneumoniae 113; strain 13): 0.5 µg/mL; MIC strain 17 (E. coli J62) (E. coli J62; strain 17): 0.125 µg/mL
CN(C)CCNC(=N)c1ccc(OCCO/N=C(\C(=O)N[C@@H]2C(=O)N(OS(=O)(=O)O)C2(C)C)c2csc(N)n2)cc1 [Example 40, (2Z)-2-(2-Amino-1,3-thiazol-4-yl)-2-{[2-(4-{N-[2-(dimethylamino)ethyl]carbamimidoyl}phenoxy)ethoxy]imino}-N-[(3S)-2,2-dimethyl-4-oxo-1-(sulfooxy)azetidin-3-yl]ethanamide] | ≤ 0.063 µg/mL | 4 µg/mL (≈ 6.53 µM) | 2 µg/mL (≈ 3.26 µM) | 8 µg/mL (≈ 13.1 µM) | 0.125 µg/mL | 0.25 µg/mL | 0.25 µg/mL | 0.125 µg/mL (≈ 0.204 µM) | 0.25 µg/mL (≈ 0.408 µM) | 0.5 µg/mL (≈ 0.816 µM) | 0.125 µg/mL (≈ 0.204 µM) | 0.5 µg/mL (≈ 0.816 µM) | 4 µg/mL (≈ 6.53 µM) | 8 µg/mL (≈ 13.1 µM) | 4 µg/mL (≈ 6.53 µM) | 2 µg/mL (≈ 3.26 µM) | 16 µg/mL (≈ 26.1 µM) | ≤ 0.063 µg/mL | ≤ 0.063 µg/mL | 0.25 µg/mL (≈ 0.408 µM) | 
CC1(C)[C@H](NC(=O)/C(=N\OCCOc2ccc(C(=N)N)cc2)c2csc(N)n2)C(=O)N1OS(=O)(=O)O [Example 41, (2Z)-2-(2-Amino-1,3-thiazol-4-yl)-2-{[2-(4-carbamimidoylphenoxy)ethoxy]imino}-N-[(3S)-2,2-dimethyl-4-oxo-1-(sulfooxy)azetidin-3-yl]ethanamide] | ≤ 0.063 µg/mL | 2 µg/mL (≈ 3.69 µM) | 1 µg/mL (≈ 1.85 µM) | 8 µg/mL (≈ 14.8 µM) | 0.25 µg/mL | 0.25 µg/mL | 0.25 µg/mL | 0.25 µg/mL (≈ 0.462 µM) | 0.5 µg/mL (≈ 0.923 µM) | 0.25 µg/mL (≈ 0.462 µM) | 0.125 µg/mL (≈ 0.231 µM) | 0.25 µg/mL (≈ 0.462 µM) | 4 µg/mL (≈ 7.39 µM) | 4 µg/mL (≈ 7.39 µM) | 4 µg/mL (≈ 7.39 µM) | 1 µg/mL (≈ 1.85 µM) | 4 µg/mL (≈ 7.39 µM) | ≤ 0.063 µg/mL | ≤ 0.063 µg/mL | 0.25 µg/mL (≈ 0.462 µM) | MIC (S. aureus 133; [4]): 4 µg/mL (≈ 7.39 µM)
CC1(C)[C@H](NC(=O)/C(=N\O[C@@H](COc2ccc(C(=N)NC3CCCNC3)cc2)C(=O)O)c2csc(N)n2)C(=O)N1OS(=O)(=O)O (stereo partly drawn) [Example 97, (2S)-2-({[(1Z)-1-(2-Amino-1,3-thiazol-4-yl)-2-{[(3S)-2,2-dimethyl-4-oxo-1-(sulfooxy)azetidin-3-yl]amino}-2-oxoethylidene]amino}oxy)-3-{4-[N-(piperidin-3-yl)carbamimidoyl]phenoxy}propanoic acid] | ≤ 0.063 µg/mL | 4 µg/mL (≈ 5.98 µM) | 0.5 µg/mL (≈ 0.748 µM) | 4 µg/mL (≈ 5.98 µM) | ≦0.063 mg/L | ≦0.063 mg/L | ≦0.063 mg/L | ≤ 0.063 µg/mL | 0.125 µg/mL (≈ 0.187 µM) | 0.125 µg/mL (≈ 0.187 µM) | ≤ 0.063 µg/mL | ≤ 0.063 µg/mL | 1 µg/mL (≈ 1.5 µM) | 1 µg/mL (≈ 1.5 µM) | 1 µg/mL (≈ 1.5 µM) | 1 µg/mL (≈ 1.5 µM) | 4 µg/mL (≈ 5.98 µM) | ≤ 0.063 µg/mL | 0.5 µg/mL (≈ 0.748 µM) | 0.125 µg/mL (≈ 0.187 µM) | MIC (S. aureus 133; [4]): 32 µg/mL (≈ 47.9 µM)
CC1(C)[C@H](NC(=O)/C(=N\O[C@@H](COc2ccc(C(=N)N[C@@H]3CCNC3)cc2)C(=O)O)c2csc(N)n2)C(=O)N1OS(=O)(=O)O [Example 96] | ≤ 0.063 µg/mL | 8 µg/mL (≈ 12.2 µM) | 1 µg/mL (≈ 1.53 µM) | 4 µg/mL (≈ 6.11 µM) | ≦0.063 mg/L | ≦0.063 mg/L | ≦0.063 mg/L | 0.125 µg/mL (≈ 0.191 µM) | ≤ 0.063 µg/mL | ≤ 0.063 µg/mL | ≤ 0.063 µg/mL | ≤ 0.063 µg/mL | 1 µg/mL (≈ 1.53 µM) | 1 µg/mL (≈ 1.53 µM) | 1 µg/mL (≈ 1.53 µM) | 1 µg/mL (≈ 1.53 µM) | 4 µg/mL (≈ 6.11 µM) | ≤ 0.063 µg/mL | 0.5 µg/mL (≈ 0.764 µM) | 0.125 µg/mL (≈ 0.191 µM) | MIC (S. aureus 133; [4]): 32 µg/mL (≈ 48.9 µM)
CNCCNC(=N)c1ccc(OC[C@H](O/N=C(\C(=O)N[C@@H]2C(=O)N(OS(=O)(=O)O)C2(C)C)c2csc(N)n2)C(=O)O)cc1 [Example 95, (2S)-2-({[(1Z)-1-(2-Amino-1,3-thiazol-4-yl)-2-{[(3S)-2,2-dimethyl-4-oxo-1-(sulfooxy)azetidin-3-yl]amino}-2-oxoethylidene]amino}oxy)-3-(4-{N-[2-(methylamino)ethyl]carbamimidoyl}phenoxy)propanoic acid] | ≤ 0.063 µg/mL | 8 µg/mL (≈ 12.4 µM) | 2 µg/mL (≈ 3.11 µM) | 4 µg/mL (≈ 6.22 µM) | 0.125 µg/mL | ≦0.063 mg/L | 0.125 µg/mL | 0.125 µg/mL (≈ 0.195 µM) | 0.125 µg/mL (≈ 0.195 µM) | 0.125 µg/mL (≈ 0.195 µM) | 0.125 µg/mL (≈ 0.195 µM) | ≤ 0.063 µg/mL | 1 µg/mL (≈ 1.56 µM) | 2 µg/mL (≈ 3.11 µM) | 2 µg/mL (≈ 3.11 µM) | 2 µg/mL (≈ 3.11 µM) | 4 µg/mL (≈ 6.22 µM) | ≤ 0.063 µg/mL | 0.5 µg/mL (≈ 0.778 µM) | 0.125 µg/mL (≈ 0.195 µM) | 
